Measurements: patent publication EP4169506B1, “PALMITOYLETHANOLAMIDE-BASED COMPOSITION IN THE FORM OF POWDERS WITH HIGH ENTERIC BIOACCESSIBILITY” (Geofarma S.r.l., priority 2021, dated 2023)

Assay: Dispersion in tap water, then in simulated gastric and enteric liquid (GSF, FaSSIF V2)
Type: physicochemical
Details: 500 mg in 100 ml tap water, then GSF and FaSSIF V2, 37°C, 250 rpm, magnetic stirring (Figure 10)
Excerpt: • Figure 1. Representative image of the in vitro model of intestinal epithelium, with the Caco-2 cell monolayer grown on a Transwell® insert. • Figure 2. (A) Electron micrograph of enterocytes forming the Caco-2 monolayer with the microvilli and occluding junctions highlighted; (B) Confocal microscopy images highlighting the occluding junctions (red) and cell nuclei (blue). • Figure 3. Dimensional distribution of PEAMag®, normast® MPS microgranules and PEA of the invention measured by DLS at the end of the digestive process in vitro. • Figure 4. Bioaccessibility (A) and excreted fraction (B) of the PEA present in the three formulations, following exposure to the digestive process (* p<0.05). • Figure 5. Cell viability of intestinal epithelia exposed to digestive fluids in the absence of the formulations (0%) and increasing concentrations of PEAMag® (A), normast® MPS microgranules (B) and PEA of the invention (C) for 3 h (*cell viability < 70%). • Figure 6. TEER of intestinal epithelia exposed to digestive fluids in the absence of the formulations (0%) and increasing concentrations of PEAMag® (A), normast® MPS microgranules (B) and PEA of the invention (C) for 3 h. • Figure 7. […]

With `CCCCCCCCCCCCCCCC(=O)NCCO` [PEA, Palmitoylethanolamide] the dispersion behaviour was “emergence of the PEA on the surface of the liquid”.
